The target of assay [1] is T1, E-selectin (Homo sapiens) (UniProt P16581).
T1 sequence (whole entry): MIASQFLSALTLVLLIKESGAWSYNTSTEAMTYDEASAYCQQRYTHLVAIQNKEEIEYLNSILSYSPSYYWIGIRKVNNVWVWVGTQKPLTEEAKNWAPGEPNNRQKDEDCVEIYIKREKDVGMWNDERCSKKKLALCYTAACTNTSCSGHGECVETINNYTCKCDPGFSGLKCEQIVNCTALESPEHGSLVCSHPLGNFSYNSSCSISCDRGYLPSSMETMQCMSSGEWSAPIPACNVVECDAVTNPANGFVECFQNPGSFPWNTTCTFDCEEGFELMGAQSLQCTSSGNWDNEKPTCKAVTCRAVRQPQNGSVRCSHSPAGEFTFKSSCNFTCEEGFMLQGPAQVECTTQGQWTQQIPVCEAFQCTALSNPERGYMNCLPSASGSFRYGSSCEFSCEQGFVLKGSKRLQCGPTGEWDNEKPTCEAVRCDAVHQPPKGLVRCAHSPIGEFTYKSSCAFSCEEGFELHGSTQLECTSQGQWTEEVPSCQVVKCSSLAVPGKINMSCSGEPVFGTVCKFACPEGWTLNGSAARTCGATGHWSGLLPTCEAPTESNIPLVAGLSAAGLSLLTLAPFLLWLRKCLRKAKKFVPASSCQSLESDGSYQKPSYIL
Put plainly: Compound was evaluated for in vitro affinity towards Selectin E, activity expressed as IC50 relative to Sialyl lewisX.

Assay [2] deals with T1, E-selectin (Homo sapiens). Put plainly: Compound was evaluated for in vitro affinity towards Selectin E.

Our source for the RIC50 values is ChEMBL document CHEMBL1130576, “Design and synthesis of a macrocyclic E-Selectin antagonist” (Bioorg Med Chem Lett, 1997).

With `O=C1CC[C@@H]2O[C@@H](O[C@@H]3CCCC[C@H]3O[C@@H]3O[C@@H](CO)[C@H](O)[C@H](O[C@@H](Cc4ccccc4)C(=O)O)[C@H]3O1)[C@@H](O)[C@@H](O)[C@@H]2O`, the RIC50 in assay [1] turned out to be 2.8.

As for `COC(=O)CCCCCCCCO[C@@H]1O[C@@H](CO)[C@@H](O[C@@H]2O[C@@H](CO)[C@H](O)[C@H](O[C@]3(C(=O)O)C[C@@H](O)[C@@H](NC(C)=O)[C@H]([C@H](O)[C@H](O)CO)O3)[C@@H]2O)[C@H](O[C@@H]2O[C@@H](C)[C@@H](O)[C@H](O)[C@@H]2O)[C@@H]1NC(C)=O`, the RIC50 in assay [2] came out at 1.

In turn, `O=C(O)CC[C@@H]1O[C@@H](O[C@@H]2CCCC[C@H]2O[C@@H]2O[C@@H](CO)[C@H](O)[C@H](O[C@@H](Cc3ccccc3)C(=O)O)[C@@H]2O)[C@@H](O)[C@@H](O)[C@@H]1O` returned an RIC50 in assay [1] of 0.39.
